Assays:
[1] = test system: non-senescent IMR90 cells; experiment: Cell counting assay, ABT-263 on non-senescent IMR90; assay type: cell-based, human; settings: 3 μM, 24 hours
Protocol: (§1) To determine whether ABT-263 is selectively toxic to senescent cells compared to non-senescent cells, a cell counting assay was used to determine cell survival following treatment with ABT-263. […] Each condition was seeded in three wells and counted independently. Cells were counted after a 24 hour exposure to ABT-263 (or control culture).

[2] = test system: senescent (irradiated) IMR90 cells; experiment: Cell counting assay, ABT-263 on senescent IMR90; assay type: cell-based, human; settings: 3 μM, 24 hours
Protocol: as §1

[3] = test system: senescent (irradiated) IMR90 cells; experiment: CellTiter-Glo cell viability assay, senescent IMR90; assay type: cell-based, human
Protocol: (§2) To determine whether ABT-263 is selectively toxic to senescent cells compared to non-senescent cells, a cell viability assay was used to assess cell survival following treatment with ABT-263. IMR90 cells (human primary lung fibroblasts (IMR90) (IMR-90 (ATCC® CCL-186™, Mannassas, Va.) were seeded in six well plates, and cells were induced to senescence with 10 Gy of ionizing radiation (IR) (Day 0). The media was refreshed every 3 days. The senescent phenotype is allowed to develop for 7 days at which point a cell count was made to determine the baseline number of cells followed by seeding into 96-well plates. On day 8, the senescent cells (irradiated) and the non-senescent cells (the non-radiated cells), were exposed to serial dilutions of ABT-263 for a period of 3 days. ABT-263 concentrations ranged from 0.5 nM to 3 μM. Each condition was seeded in triplicate.
(§3) After three days of treatment (Day 11), cells were assayed for cell survival using the commercially available CellTiter-Glo® (CTG) Luminescent Cell Viability Assay (Promega Corporation, Madison, Wis.). The assay determines the number of viable cells in culture based on the quantitation of ATP present which is an indicator of metabolically active cells.
(§4) The experiments performed for assessing the effect of these other Bcl-2 inhibitors were performed essentially as described in Example 7. Cells were exposed to ABT-199 at serial dilution concentrations ranging from 15 nM to 100 μM (FIGS. 26 and 27). Cells were exposed to Obatoclax at concentrations ranging from 1.4 nM to 9 μM (FIG. 28).
(§5) The effect of ABT-263 in combination with the Akt inhibitor MK-2206 was tested for selective toxicity of senescent cells compared to non-senescent cells in IMR90 cells. The methods of Example 7 were repeated except that cell cultures were exposed to 10 nM MK-2206 (Selleckem, Cat# S1078) in addition to serial dilutions of ABT-263.

[4] = test system: non-senescent IMR90 cells; experiment: CellTiter-Glo cell viability assay, non-senescent IMR90; assay type: cell-based; settings: Homo sapiens, IMR-90, 72 h; IMR90, 3 days, CellTiter-Glo; read-out: IC50 on non-senescent cells
Protocol: as §2, §3, §4, §5

[5] = test system: senescent Primary Renal Cortical Cells (renal epithelial cells); experiment: CellTiter-Glo cell viability assay, senescent renal epithelial cells; assay type: cell-based; settings: 72 h, 3 days
Protocol: as §2, §3
(§6) The methods of Example 7 were repeated in other cell strains. […]

[6] = test system: non-senescent Primary Renal Cortical Cells (renal epithelial cells); experiment: CellTiter-Glo cell viability assay, non-senescent renal epithelial cells; assay type: cell-based; settings: 72 h, 3 days
Protocol: as §2, §3, §6

[7] = test system: senescent HCA2 foreskin fibroblast cells; experiment: CellTiter-Glo cell viability assay, senescent HCA2; assay type: cell-based; settings: 72 h; HCA2, 3 days
Protocol: as §2, §3, §6

[8] = test system: non-senescent HCA2 foreskin fibroblast cells; experiment: CellTiter-Glo cell viability assay, non-senescent HCA2; assay type: cell-based; settings: 72 h; HCA2, 3 days; not toxic up to highest concentration
Protocol: as §2, §3, §6

[9] = test system: senescent (IMR90 Sen(IR)) and non-senescent (IMR90 NS) cells; experiment: Senescent cell killing in presence or absence of pan-caspase inhibitor Q-VD-OPh (CellTiter-Glo); assay type: cell-based, human
Protocol: After senescence was established, cells were re-seeded into 96 well plates. […] At the end of the assay time period, cells were counted. Each condition was seeded in three plate wells and counted independently. […] Cell survival was determined using the commercially available CellTiter-Glo® Luminescent Cell Viability Assay (Promega Corporation, Madison, Wis.). The assay determines the number of viable cells in culture based on the quantitation of ATP present which is an indicator of metabolically active cells.
After senescence was established, cells were re-seeded into 96 well plates. […] At the end of the assay time period, cells were counted. Each condition was seeded in three plate wells and counted independently. […] Cell survival was determined using CellTiter-Glo® Luminescent Cell Viability Assay (Promega Corporation, Madison, Wis.). The assay determines the number of viable cells in culture based on the quantitation of ATP present which is an indicator of metabolically active cells.

[10] = test system: 3MR or INK-ATTAC mice exposed to cigarette smoke; experiment: Cigarette smoke exposure model (COPD), oxygen saturation; assay type: in vivo, mouse; settings: after 2 months of cigarette smoke exposure
Protocol: Six week-old 3MR (n=35) or INK-ATTAC (n=35) mice were chronically exposed to cigarette smoke generated from a Teague TE-10 system, an automatically-controlled cigarette smoking machine that produces a combination of side-stream and mainstream cigarette smoke in a chamber, which is transported to a collecting and mixing chamber where varying amounts of air is mixed with the smoke mixture. […] Mice received a total of 6 hours of cigarette smoke exposure per day, 5 days a week for 6 months. Each lighted cigarette (3R4F research cigarettes containing 10.9 mg of total particulate matter (TPM), 9.4 mg of tar, and 0.726 mg of nicotine, and 11.9 mg carbon monoxide per cigarette [University of Kentucky, Lexington, Ky.]) was puffed for 2 seconds and once every minute for a total of 8 puffs, with the flow rate of 1.05 L/min, to provide a standard puff of 35 cm^3. The smoke machine was adjusted to produce a mixture of side stream smoke (89%) and mainstream smoke (11%) by smoldering 2 cigarettes at one time. The smoke chamber atmosphere was monitored for total suspended particulates (80-120 mg/m^3) and carbon monoxide (350 ppm). Beginning at day 7, (10) INK-ATTAC and (10) 3MR mice were treated with AP20187 (3×per week) or gancyclovir (5 consecutive days of treatment followed by 16 days off drug, repeated until the end of the experiment), respectively. An equal number of mice received the corresponding vehicle. The remaining 30 mice (15 INK-ATTAC and 15 3MR) were evenly split with 5 of each genetically modified strain placed into three different treatment groups. One group (n=10) received Nutlin-3A (25 mg/kg dissolved in 10% DMSO/3% Tween-20 in PBS, treated 14 days consecutively followed by 14 days off drug, repeated until the end of the experiment). One group (n=10) received ABT-263 (Navitoclax) (100 mg/kg dissolved in 15% DMSO/5% Tween-20, treated 7 days consecutively followed by 14 days off drug, repeated until the end of the experiment), and the last group (n=10) received only the vehicle used for ABT-263 (15% DMSO/5% Tween-20), following the same treatment regimen as ABT-263.
After two months of cigarette smoke exposure, lung function was assessed by monitoring oxygen saturation using the MouseSTAT PhysioSuite pulse oximeter (Kent Scientific). Animals were anesthetized with isoflurane (1.5%) and the toe clip was applied. Mice were monitored for 30 seconds and the average peripheral capillary oxygen saturation (SpO2) measurement over this duration was calculated.

[11] = test system: paclitaxel treated p16-3MR mice; experiment: Chemotherapy related side effects: voluntary exercise (wheel counts) after paclitaxel in p16-3MR mice; assay type: in vivo, mouse; settings: ABT-263 100 mg/kg ip daily 7 days; ganciclovir 25 mg/kg ip daily 3 days
Protocol: ABT-263 (100 mg/kg) was administered intraperitoneally daily for seven days after paclitaxel administration. Two days after the last dose of ABT-263, all groups of animals were housed in metabolic cages (promethion, sable systems international, Las Vegas, Nev.) to monitor voluntary exercise as determined by wheel counts. Data were collected and analyzed two days later. Clearance of senescent cells by ABT-263 and ganciclovir restored approximately 70% of wheel count reduction caused by chemotherapy treatment.

SMILES: CC1(C)CCC(c2ccc(Cl)cc2)=C(CN2CCN(c3ccc(C(=O)NS(=O)(=O)c4ccc(N[C@H](CCN5CCOCC5)CSc5ccccc5)c(S(=O)(=O)C(F)(F)F)c4)cc3)CC2)C1 [ABT-263, 4-[4-[[2-(4-chlorophenyl)-5,5-dimethylcyclohexen-1-yl]methyl]piperazin-1-yl]-N-[4-[[(2R)-4-morpholin-4-yl-1-phenylsulfanylbutan-2-yl]amino]-3-(trifluoromethylsulfonyl)phenyl]sulfonylbenzamide]
- cell growth / survival of non-senescent cells versus starting level [1]: did not decrease the cell growth below the starting level
- cell counts as percent of counts before treatment [2]: 28%
- IC50 ([3]; Homo sapiens, IMR-90, 72 h, IMR90, 3 days, CellTiter-Glo, read-out: IC50 on senescent cells): 140 nM
- in vitro theoretical therapeutic index ([3]; IMR90, non-senescent versus senescent IC50): 17
- IC50 [4]: 2400 nM
- IC50 [5]: 25 nM
- IC50 [6]: 430 nM
- IC50 [7]: 410 nM
- IC50 [8]: > 3000 nM
- selective killing of senescent cells ([9]; IMR90, 3 days): selectively kills senescent cells
- percent of surviving senescent cells in the presence of the pan-caspase inhibitor ([9]; Q-VD-OPh 20 μM, WEHI-539 1.67 or 5 μM, ABT-263 0.33 or 1 μM, 3 days): increased
- senolytic activity in the presence of a caspase inhibitor ([9]; panCaspase inhibitor Q-VD-OPh): inhibited
- SpO2 levels versus untreated controls [10]: statistically significant increases
- restoration of wheel count reduction caused by chemotherapy treatment [11]: approximately 70%
